This is an account of results in publication PMC11585928, “Screening the Global Health Priority Box against Plasmodium berghei liver stage parasites using an inexpensive luciferase detection protocol” (Malaria Journal, 2024).

Data set [1] has as its system luciferase-expressing P. berghei liver stage schizonts. The experiment in a line: P. berghei liver stage dose-response assay in HepG2, FLAR luciferase endpoint (legacy anti-malarials). As to conditions: Plasmodium berghei, HepG2, 44 h, read-out: FLAR (pEC50 ± SD) (converted). The data set is classed as cell-based. Here is the method: All stock reagents were stored at 4 °C, except D-luciferin, ATP, and DTT which were aliquoted and stored at − 20 °C. Tricine, MgSO4, and MgCO3 stocks were all adjusted to have a pH of 7.8.
To test the titration of sporozoite in dose–response format with MMV390048, 20 µL of a 25 sporozoite/μL solution in HepG2 media was added to columns 1–8 of 384-well plates (inoculum of 500 sporozoites/well), 20 μL of 50 sporozoites/μL was added into columns 9–16 (inoculum of 1000 sporozoites/well), and 20 μL of 100 sporozoites/μL was added into columns 17–24 (inoculum of 2000 sporozoites/well). To test legacy anti-malarials, two independent experiments were performed for each endpoint (FLAR or HCI), each with an independent production run of P. berghei sporozoites. […] Infected plates were spun for 5 min at 200 RCF and kept for 3 h at 37 °C and 5% CO2 prior to compound treatment.
(§1) Compound treatment was performed as previously described. Dose–response source plates containing 5 μL of 1000 × test compounds in a serial dilution in DMSO were prepared in low volume 384-well plates using a Biomek 4000 (Beckman Coulter). Assay plates were treated by transferring 40 nL from screening or dose–response source plates using a pin tool (V&P Scientific) affixed to a Biomek NXp, resulting in a final test concentration of 1 × in media.
After 44 h, dose–response plates designated for the FLAR endpoint underwent the freeze/thaw lysis method before detection with 1 × FLAR completed with 1 × D-luciferin and ATP endpoint described above. […] Following fixation, the plate was washed twice by adding and then dumping 20 µL of PBS/well. […] Plates were imaged on an ImageXpress Micro Confocal high content system (Molecular Devices). Raw values (either parasite growth area for HCI or Relative Light Units (RLU) for FLAR) were normalized to the positive (MMV390048) or negative (DMSO) controls using the equation: %Inhibition=100×RawData-AverageNegativeControl/AveragePositiveControl-AverageNegativeControl and curve fitting was performed with CDD Vault using the Levenberg–Marquardt algorithm. Potency data from all plates were collected, visualized, and analysed using GraphPad Prism (Version 10.0.3). Potency values for legacy anti-malarials obtained from our FLAR endpoint were compared to those previously reported from a 1536-well plate format using a Bright-Glo™ luciferase detection protocol.

For data set [2], the system named is P. berghei liver stage schizonts. The experiment in a line: microbe, parasite or virus in culture. Particulars: Plasmodium berghei, HepG2, 44 h, read-out: High Content Imaging (pEC50 ± SD) (converted). The format is cell-based. Here is the method:
HepG2 seeding (1.75 × 10^4 cells/well), salivary gland dissection, sporozoite quantification, and sporozoite dilution were performed as described above. To test the titration of sporozoite in dose–response format with MMV390048, 20 µL of a 25 sporozoite/μL solution in HepG2 media was added to columns 1–8 of 384-well plates (inoculum of 500 sporozoites/well), 20 μL of 50 sporozoites/μL was added into columns 9–16 (inoculum of 1000 sporozoites/well), and 20 μL of 100 sporozoites/μL was added into columns 17–24 (inoculum of 2000 sporozoites/well). To test legacy anti-malarials, two independent experiments were performed for each endpoint (FLAR or HCI), each with an independent production run of P. berghei sporozoites. […] Infected plates were spun for 5 min at 200 RCF and kept for 3 h at 37 °C and 5% CO2 prior to compound treatment.
as §1
After 44 h, dose–response plates designated for the FLAR endpoint underwent the freeze/thaw lysis method before detection with 1 × FLAR completed with 1 × D-luciferin and ATP endpoint described above. Plates designated for the HCI endpoint were fixed with 4% paraformaldehyde (Thermo Scientific, cat 043368.9 M) in PBS for 20 min. Following fixation, the plate was washed twice by adding and then dumping 20 µL of PBS/well. Plates were then stained with 50 ng/mL of mouse anti-Plasmodium glyceraldehyde 3-phosphate dehydrogenase (GAPDH) (European Malaria Reagent Repository, cat 13.3) diluted in a 0.3% Triton X and 1% BSA permeabilization and blocking stain buffer overnight at 4 °C. Following three washes with PBS, plates were stained with 2 µg/mL of goat anti-mouse AlexaFluor 488 (Invitrogen, cat A11001) diluted in stain buffer and again incubated overnight at 4 °C. Following three washes with PBS, plates were counterstained with 10 µg/mL Hoechst 33342 (Invitrogen, cat H21492) for 30 min before two washes. Plates were imaged on an ImageXpress Micro Confocal high content system (Molecular Devices). Raw values (either parasite growth area for HCI or Relative Light Units (RLU) for FLAR) were normalized to the positive (MMV390048) or negative (DMSO) controls using the equation: %Inhibition=100×RawData-AverageNegativeControl/AveragePositiveControl-AverageNegativeControl and curve fitting was performed with CDD Vault using the Levenberg–Marquardt algorithm. Potency data from all plates were collected, visualized, and analysed using GraphPad Prism (Version 10.0.3). Potency values for legacy anti-malarials obtained from our FLAR endpoint were compared to those previously reported from a 1536-well plate format using a Bright-Glo™ luciferase detection protocol.

The subject of another data set is HepG2 cells. Nature of the data set: HepG2 cytotoxicity assay in galactose media, 72 h, hepatic nuclei count by HCI. The format is cell-based, Homo sapiens. On the procedure: To assess the general cytotoxicity of GHPB compounds, HepG2 cells were cultured in media containing galactose instead of glucose to avoid false negatives due to the Crabtree effect. Following propagation of HepG2 in T-75 flasks with glucose-containing media as above, media was aspirated, the cell monolayer was washed with PBS, and then cells were trypsinized as above. Released cells were then resuspended in media containing glucose-free DMEM (Gibco, cat 11,966–025) supplemented with 10% FBS (Corning, cat 35–016-CV), 10 mM galactose (Sigma, cat G5388), 1 mM sodium pyruvate (Corning, cat 25–000-CI), 1 × penicillin–streptomycin-neomycin mix (Gibco, cat 15,640–055), and 2 mM L-glutamine (Gibco, cat 25,030–081). The cell density was calculated using trypan blue exclusion on a haemocytometer, diluted to 50 cells/µL, and 40 µL of cells were seeded into collagen-coated 384-well plates (Greiner Bio-One, cat 781,956) using a Biomek NXp (Beckman Coulter), resulting in 2 × 10^3 cells/well. The day after seeding, plates were treated with a pin tool as above and cultured for 72 h. Plates were then fixed with 4% paraformaldehyde, stained with 10 µg/mL Hoechst 33,342, and imaged on an ImageXpress Micro Confocal. Hepatic nuclei were quantified using MetaXpress (Molecular Devices) image analysis software. Both P. berghei liver schizont and HepG2 cytotoxicity data were loaded into CDD Vault for normalization and hit selection as described above. A total of 35 compounds were identified for resupply of fresh powder for confirmation in dose–response assays. […] Powders were diluted to 50 mM in DMSO and plated in 1000 × source plates as described above. […] Separately, two independent runs of the HepG2 cultured in galactose, assayed as described above, were used to assess the cytotoxicity potency and selectivity indices for these compounds. […] Receiver-operator characteristic (ROC) curves were generated using Graphpad Prism and area under the curve (AUC) was calculated using the Wilson/Brown method for both P. berghei liver schizont activity and HepG2 cytotoxicity.

Where only a bound is given, the exact number is not on record here.

For the compound `c1cc([C@H]2CC[C@]3(CC2)OO[C@]2(O3)C3CC4CC(C3)CC2C4)ccc1OCCN1CCOCC1` [Artefenomel (OZ439), Artefenomel], the EC50 in data set [1] was over 28800 nM; in data set [2] it was over 1230 nM.
The corresponding values for `CO[C@H]1O[C@@H]2O[C@@]3(C)CC[C@H]4[C@H](C)CC[C@@H]([C@H]1C)[C@@]24OO3` [Artemether] are over 1070 nM and over 37200 nM.
For `C[C@@H]1CC[C@H]2[C@@H](C)C(=O)O[C@@H]3O[C@@]4(C)CC[C@@H]1[C@]32OO4` [Artemisinin], the EC50 in data set [1] and in data set [2] was over 50100 nM in each case.
With `C[C@H]1[C@@H](O)O[C@@H]2O[C@@]3(C)CC[C@H]4[C@H](C)CC[C@@H]1[C@@]24OO3` [Artenimol (DHA), dihydroartemisinin], the EC50 in data set [1] and in data set [2] was over 10000 nM in each case.
`CC(C)(N)CNC(=O)C[C@H]1CC[C@]2(CC1)OO[C@]1(O2)C2CC3CC(C2)CC1C3` [Arterolane (OZ277), Arterolane]: the EC50 was over 10000 nM in data set [1] and over 3020 nM in data set [2].
Regarding `C[C@H]1[C@H](OC(=O)CCC(=O)O)O[C@@H]2O[C@@]3(C)CC[C@H]4[C@H](C)CC[C@@H]1[C@@]24OO3` [Artesunate], the EC50 in data set [1] and in data set [2] was over 16600 nM each time.
For the compound `O=C1C(O)=C([C@H]2CC[C@H](c3ccc(Cl)cc3)CC2)C(=O)c2ccccc21` [Atovaquone], the EC50 in data set [1] is 21.4 nM; in data set [2] it was 17 nM.
Turning to `CC[C@H]1OC(=O)[C@H](C)[C@@H](O[C@H]2C[C@@](C)(OC)[C@@H](O)[C@H](C)O2)[C@H](C)[C@@H](O[C@@H]2O[C@H](C)C[C@H](N(C)C)[C@H]2O)[C@](C)(O)C[C@@H](C)CN(C)[C@H](C)[C@@H](O)[C@]1(C)O` [Azithromycin], the EC50 in data set [1] and in data set [2] was over 10000 nM throughout.
Consider `CCN(CC)CCCC(C)Nc1ccnc2cc(Cl)ccc12` (centres unmarked) [Chloroquine], for which the EC50 in data set [1] and in data set [2] was over 10000 nM each time.
On to `C[C@H]1Cc2c([nH]c3cc(Cl)c(F)cc23)[C@@]2(N1)C(=O)Nc1ccc(Cl)cc12` [Cipargamin], for which the EC50 was 10.2 nM in data set [1] and 9.55 nM in data set [2].
In the case of `Cc1cc(Nc2ccc(S(F)(F)(F)(F)F)cc2)n2nc(C(C)(F)F)nc2n1` [DSM265], the results for the EC50 in data set [1] and in data set [2] were 16.6 nM and 11.2 nM, respectively.
Taken in the same sequence, the figures for `CCCCN(CCCC)CC(O)c1cc(Cl)cc2c1-c1ccc(Cl)cc1/C2=C/c1ccc(Cl)cc1` (centres unmarked) [Lumefantrine] were over 5750 nM and over 5750 nM.
Consider `CCOc1ccccc1NC(=O)Cn1c(=O)n(Cc2ccccc2)c(=O)c2c(C)c(C(=O)N(C)C)sc21` [MMV006430], for which the “HepG2 Cytotoxicity (pEC50 ± SD)” value in the data set with HepG2 cells came to 4.94 ± 0.06.
For the compound `CS(=O)(=O)c1ccc(-c2cnc(N)c(-c3ccc(C(F)(F)F)nc3)c2)cc1` [MMV390048], the EC50 in data set [1] was 64.6 nM; in data set [2], 63.1 nM.
Turning to `CN(C)c1ccc2nc3ccc(=[N+](C)C)cc-3sc2c1` [Methylene Blue], the EC50 is 219 nM in data set [1] and 295 nM in data set [2].
Consider `Clc1ccc2c(N3CCN(CCCN4CCN(c5ccnc6cc(Cl)ccc56)CC4)CC3)ccnc2c1` [Piperaquine], for which the EC50 in data set [1] is over 5250 nM; in data set [2], over 5750 nM.
Consider `COc1cc(NC(C)CCCN)c2ncccc2c1` (centres unmarked) [Primaquine], for which the EC50 in data set [1] was over 5370 nM; in data set [2], over 10000 nM.
For `CCc1nc(N)nc(N)c1-c1ccc(Cl)cc1` [Pyrimethamine], the values for the EC50 in data set [1] and in data set [2] were 33.9 nM and 19.5 nM, respectively.
Consider `COc1ncnc(NS(=O)(=O)c2ccc(N)cc2)c1OC` [Sulfadoxine], for which the EC50 in data set [1] and in data set [2] was over 10000 nM in each case.
In the case of `COc1cc(C)c2c(Oc3cccc(C(F)(F)F)c3)c(OC)cc(NC(C)CCCN)c2n1` (centres unmarked) [Tafenoquine], the EC50 in data set [1] is over 1580 nM; in data set [2] it was over 3390 nM.
Taken in the same sequence, the figures for `COc1cc(Cc2cnc(N)nc2N)cc(OC)c1OC` [Trimethoprim] were 1290 nM and 1740 nM.
